± gives the expanded uncertainty stated by the source.
Legend:
[1] = 323.15 K, 101.33 kPa, Liquid; for speed of sound: Sing-around technique in a fixed-path interferometer; for mass density: Vibrating tube method
[2] = mn = molality of the nth substance listed, in mol/kg; conditions: 323.15 K, 101 kPa, Liquid, Vibrating tube method
[3] = osmotic coefficient (dimensionless); mn = molality of the nth substance listed, in mol/kg; conditions: 323.15 K, 101 kPa, Liquid, A Knauer K-7000 vapor pressure osmometer

CCCCCCn1cc[n+](C)c1.O=S(=O)([O-])C(F)(F)F [1-hexyl-3-methylimidazolium trifluoromethanesulfonate]
[1]
Conditions	mass density [kg/m3]	speed of sound [m/s]
–	1217.24 ± 0.41	1327.2 ± 1.3

CCC(C)O (stereo unspecified) [butan-2-ol]
[1]
Conditions	mass density [kg/m3]	speed of sound [m/s]
–	780.4 ± 0.15	1120.2 ± 1

CCCCCCn1cc[n+](C)c1.O=S(=O)([O-])C(F)(F)F [1-hexyl-3-methylimidazolium trifluoromethanesulfonate] + CCCO
Conditions	mass density, [2] [kg/m3]	osmotic coefficient, [3]
m1 = 0.025	–	0.964 ± 0.014
m1 = 0.051	783.95 ± 0.22	0.866 ± 0.014
m1 = 0.087	–	0.796 ± 0.014
m1 = 0.102	788.64 ± 0.22	–
m1 = 0.153	793.14 ± 0.21	–
m1 = 0.214	–	0.685 ± 0.016
m1 = 0.234	800.17 ± 0.21	–
m1 = 0.296	805.3 ± 0.2	–
m1 = 0.306	806.08 ± 0.2	–
m1 = 0.308	–	0.645 ± 0.017
m1 = 0.355	810.02 ± 0.2	–
m1 = 0.401	813.72 ± 0.2	–
m1 = 0.411	–	0.585 ± 0.019
m1 = 0.448	817.38 ± 0.19	–
m1 = 0.518	822.69 ± 0.19	0.547 ± 0.02
m1 = 0.62	830.19 ± 0.18	–
m1 = 0.707	836.34 ± 0.18	–
m1 = 0.804	843.03 ± 0.18	–
m1 = 0.815	–	0.494 ± 0.022
m1 = 0.905	849.7 ± 0.17	–
m1 = 1.012	856.34 ± 0.17	–
m1 = 1.223	–	0.462 ± 0.022
m1 = 1.614	–	0.427 ± 0.024
m1 = 2.029	–	0.408 ± 0.024
m1 = 2.416	–	0.392 ± 0.025
m1 = 2.82	–	0.373 ± 0.025
m1 = 3.493	–	0.361 ± 0.026

CCCCCO [pentan-1-ol]
[1]
Conditions	mass density [kg/m3]	speed of sound [m/s]
–	792.14 ± 0.24	1192.9 ± 1.3

CCCCCCn1cc[n+](C)c1.O=S(=O)([O-])C(F)(F)F [1-hexyl-3-methylimidazolium trifluoromethanesulfonate] + CCCCCO
Conditions	mass density [kg/m3]	osmotic coefficient
[2], m1 = 0.05	796.7 ± 0.29	–
[2], m1 = 0.1	801.05 ± 0.29	–
[2], m1 = 0.151	805.37 ± 0.29	–
[2], m1 = 0.202	809.6 ± 0.29	–
[2], m1 = 0.254	813.84 ± 0.29	–
[2], m1 = 0.3	817.52 ± 0.28	–
[2], m1 = 0.401	825.41 ± 0.28	–
[2], m1 = 0.498	832.62 ± 0.28	–
[2], m1 = 0.61	840.59 ± 0.27	–
[2], m1 = 0.705	847.05 ± 0.27	–
[2], m1 = 0.803	853.55 ± 0.27	–
[2], m1 = 0.849	856.48 ± 0.26	–
[2], m1 = 1	865.7 ± 0.26	–
[3], m1 = 0.053	–	0.784 ± 0.019
[3], m1 = 0.084	–	0.599 ± 0.021
[3], m1 = 0.108	–	0.51 ± 0.021
[3], m1 = 0.194	–	0.44 ± 0.023
[3], m1 = 0.313	–	0.392 ± 0.025
[3], m1 = 0.415	–	0.345 ± 0.026
[3], m1 = 0.512	–	0.331 ± 0.027
[3], m1 = 0.829	–	0.299 ± 0.028
[3], m1 = 1.216	–	0.293 ± 0.028
[3], m1 = 1.64	–	0.276 ± 0.028
[3], m1 = 2.047	–	0.27 ± 0.028
[3], m1 = 2.461	–	0.255 ± 0.029
[3], m1 = 2.845	–	0.244 ± 0.029
[3], m1 = 3.322	–	0.226 ± 0.03

CCCCCCn1cc[n+](C)c1.O=S(=O)([O-])C(F)(F)F [1-hexyl-3-methylimidazolium trifluoromethanesulfonate] + CCC(C)O
Conditions	mass density [kg/m3]	osmotic coefficient
[2], m1 = 0.052	785.45 ± 0.23	–
[2], m1 = 0.102	789.95 ± 0.23	–
[2], m1 = 0.153	794.44 ± 0.23	–
[2], m1 = 0.203	798.75 ± 0.22	–
[2], m1 = 0.302	806.95 ± 0.22	–
[2], m1 = 0.352	810.99 ± 0.22	–
[2], m1 = 0.403	815.07 ± 0.21	–
[2], m1 = 0.45	818.65 ± 0.21	–
[2], m1 = 0.5029	822.68 ± 0.21	–
[2], m1 = 0.597	829.6 ± 0.2	–
[2], m1 = 0.7	836.92 ± 0.2	–
[2], m1 = 0.797	843.69 ± 0.2	–
[2], m1 = 0.907	850.73 ± 0.19	–
[2], m1 = 1.002	856.64 ± 0.19	–
[3], m1 = 0.056	–	0.823 ± 0.014
[3], m1 = 0.079	–	0.797 ± 0.014
[3], m1 = 0.107	–	0.76 ± 0.015
[3], m1 = 0.215	–	0.626 ± 0.018
[3], m1 = 0.296	–	0.576 ± 0.019
[3], m1 = 0.401	–	0.513 ± 0.021
[3], m1 = 0.513	–	0.487 ± 0.022
[3], m1 = 0.809	–	0.426 ± 0.024
[3], m1 = 1.206	–	0.393 ± 0.025
[3], m1 = 1.608	–	0.38 ± 0.025
[3], m1 = 2.032	–	0.362 ± 0.026
[3], m1 = 2.426	–	0.351 ± 0.026
[3], m1 = 2.776	–	0.342 ± 0.026
[3], m1 = 3.311	–	0.337 ± 0.026
[3], m1 = 3.703	–	0.332 ± 0.026
